Measured values: patent EP2027850A1, “Pharmaceutical compositions containing voriconazole” (SANDOZ AG, priority 2007, dated 2009)

Test: solubility of voriconazole in N-methylpyrrolidone and water / NMP mixtures
Format: physicochemical
Method: This can also be used to improve the solubility of voriconazole in aqueous solutions.
0.210 g Voriconazole are dissolved in 50 mL N-Methylpyrrolidone (NMP) using a magnetic stirrer. Further aliquots of 0.305 g, 0.519 g and 1.009 Voriconazole are added to NMP-solution using magnet stirring. Solution I is obtained, composed of […] Voriconazole in 50 mL NMP.
0.45 - 0.55 g Voriconazole are dissolved in NMP according to example 1. After obtaining a clear solution, solutions are made up with water to 20.0 mL.
Therefore, in 20 mL solution, 0.5 g Voriconazole can be dissolved with water / NMP mixtures.

SMILES: C[C@@H](c1ncncc1F)[C@](O)(Cn1cncn1)c1ccc(F)cc1F [Voriconazole, (2R,3S)-2-(2,4-Difluorophenyl)-3-(5-fluoro-4-pyrimidinyl)-1-(1H-1,2,4-triazol-1-yl)-butan-2-ol]
- solubility in N-methylpyrrolidone: extremely high
